In patent US10611777B2, “Imidazopyridazine compounds and their use” (HUTCHISON MEDIPHARMA LIMITED, priority 2014, dated 2020):

Key:
PI3K-γ (p110γ) = PI3K-γ (p110γ) (Homo sapiens (Human), UniProt P48736); experiment: Fluorescent determination of PI3K enzyme activity (Transcreener KINASE Assay), PI3K-γ; type: biochemical; details: inhibition rate at 1 μM;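 note: p110γ enzyme reaction for 80 min at room temperature, ADP formed measured by far-red competitive fluorescence polarization immunoassay, inhibition relative to wells with 2% DMSO only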
Chain of PI3K-γ (p110γ) (P48736 whole entry, species assumed): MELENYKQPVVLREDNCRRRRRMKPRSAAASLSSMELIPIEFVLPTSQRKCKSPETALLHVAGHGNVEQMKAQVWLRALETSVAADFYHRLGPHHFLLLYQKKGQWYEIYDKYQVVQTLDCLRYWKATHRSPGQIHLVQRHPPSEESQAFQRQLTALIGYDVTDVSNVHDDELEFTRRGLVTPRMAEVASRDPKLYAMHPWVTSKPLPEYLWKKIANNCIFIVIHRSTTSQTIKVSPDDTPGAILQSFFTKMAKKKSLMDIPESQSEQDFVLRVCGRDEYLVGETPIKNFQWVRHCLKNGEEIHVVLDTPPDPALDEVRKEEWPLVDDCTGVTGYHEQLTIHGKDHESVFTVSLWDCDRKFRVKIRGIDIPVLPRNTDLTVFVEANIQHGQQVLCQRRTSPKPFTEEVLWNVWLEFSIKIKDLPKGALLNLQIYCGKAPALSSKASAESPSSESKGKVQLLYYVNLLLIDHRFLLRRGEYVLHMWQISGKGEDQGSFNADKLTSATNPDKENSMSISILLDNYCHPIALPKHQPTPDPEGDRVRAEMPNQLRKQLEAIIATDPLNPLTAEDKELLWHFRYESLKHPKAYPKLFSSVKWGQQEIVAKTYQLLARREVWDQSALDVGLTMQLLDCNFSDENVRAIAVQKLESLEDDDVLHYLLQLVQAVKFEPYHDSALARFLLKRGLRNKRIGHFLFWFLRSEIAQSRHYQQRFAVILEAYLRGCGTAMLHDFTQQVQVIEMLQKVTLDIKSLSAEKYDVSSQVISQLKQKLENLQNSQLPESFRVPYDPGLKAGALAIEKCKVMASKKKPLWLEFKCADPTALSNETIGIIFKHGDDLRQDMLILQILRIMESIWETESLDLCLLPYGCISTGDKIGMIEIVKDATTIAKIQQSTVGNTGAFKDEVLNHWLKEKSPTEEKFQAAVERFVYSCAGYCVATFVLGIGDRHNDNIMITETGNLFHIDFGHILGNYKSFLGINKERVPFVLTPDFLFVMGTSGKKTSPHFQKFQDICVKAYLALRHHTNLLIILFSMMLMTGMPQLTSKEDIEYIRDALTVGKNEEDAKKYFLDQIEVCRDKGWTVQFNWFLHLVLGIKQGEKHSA
Description: (§1) PI3K kinases including p110α/p85α and p110γ were purchased from Invitrogen, p110δ/p85α and p110β/p85α were from Millipore.
(§2) It is a universal, homogenous, high throughput screening (HTS) technology using a far-red, competitive fluorescence polarization immunoassay based on the defection of ADP to monitor the activity of enzymes that catalyze group transfer reactions. […] The reaction mixture was added into desired wells of a 96-well plate. The plate was sealed and incubated for 80 min at room temperature. • 2) Next, 25 uL ADP detection mix was added into each well. The plate was sealed again and incubated for 60 min at room temperature. Then fluorescence polarization was measured by Tecan Infinite F500 Reader.
(§3) Data was analyzed and IC50 values were generated using the add-in software for Microsoft Excel, Xlfit™ (version 5.3).
(§4) Inhibition rates were calculated as follow: IH %=(ADP amount under 2% DMSO well−ADP amount under test compound well)/ADP amount under 2% DMSO well×100%.

PI3K-β (p110β/p85α) = PI3K-β (p110β/p85α) (Homo sapiens (Human), UniProt P42338); experiment: Fluorescent determination of PI3K enzyme activity (Transcreener KINASE Assay), PI3K-β; type: biochemical; details: for PI3K-β IH%: inhibition rate at 1 μM;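 for all read-outs here: Far-red fluorescence polarization immunoassay detecting ADP produced by the kinase, 80 min enzyme reaction at room temperature, inhibition relative to ADP formed in 2% DMSO control wells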
Chain of PI3K-β (p110β/p85α) (P42338 whole entry, species assumed): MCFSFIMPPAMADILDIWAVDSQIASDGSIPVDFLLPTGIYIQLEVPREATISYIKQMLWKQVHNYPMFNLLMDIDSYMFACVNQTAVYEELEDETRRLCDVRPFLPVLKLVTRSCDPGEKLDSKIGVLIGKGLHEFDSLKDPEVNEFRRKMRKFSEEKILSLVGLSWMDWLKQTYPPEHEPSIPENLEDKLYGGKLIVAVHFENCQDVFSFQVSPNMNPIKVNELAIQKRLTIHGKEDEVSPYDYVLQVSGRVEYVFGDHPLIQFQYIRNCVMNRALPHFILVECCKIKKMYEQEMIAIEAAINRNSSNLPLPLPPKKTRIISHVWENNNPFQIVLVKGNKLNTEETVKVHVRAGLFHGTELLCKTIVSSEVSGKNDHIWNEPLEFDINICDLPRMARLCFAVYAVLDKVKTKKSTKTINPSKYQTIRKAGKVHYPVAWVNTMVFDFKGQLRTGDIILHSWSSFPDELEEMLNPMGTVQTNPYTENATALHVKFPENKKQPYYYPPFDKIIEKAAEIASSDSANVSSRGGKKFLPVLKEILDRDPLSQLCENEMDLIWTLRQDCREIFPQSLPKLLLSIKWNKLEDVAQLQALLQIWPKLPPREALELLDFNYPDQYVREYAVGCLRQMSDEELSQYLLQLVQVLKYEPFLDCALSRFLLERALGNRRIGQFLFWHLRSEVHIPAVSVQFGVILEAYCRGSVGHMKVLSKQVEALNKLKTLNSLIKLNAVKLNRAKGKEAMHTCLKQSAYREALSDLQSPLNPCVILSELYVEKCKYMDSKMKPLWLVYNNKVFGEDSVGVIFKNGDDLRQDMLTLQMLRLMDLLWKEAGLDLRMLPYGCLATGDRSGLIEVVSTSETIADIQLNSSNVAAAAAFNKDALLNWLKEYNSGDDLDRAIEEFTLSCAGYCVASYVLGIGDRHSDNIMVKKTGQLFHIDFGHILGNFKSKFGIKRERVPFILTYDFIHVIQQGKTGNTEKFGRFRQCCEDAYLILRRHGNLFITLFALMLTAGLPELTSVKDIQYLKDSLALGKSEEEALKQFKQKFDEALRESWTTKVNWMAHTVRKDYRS
Chain of PI3K-β (p110β/p85α) (P27986 whole entry partner, species assumed): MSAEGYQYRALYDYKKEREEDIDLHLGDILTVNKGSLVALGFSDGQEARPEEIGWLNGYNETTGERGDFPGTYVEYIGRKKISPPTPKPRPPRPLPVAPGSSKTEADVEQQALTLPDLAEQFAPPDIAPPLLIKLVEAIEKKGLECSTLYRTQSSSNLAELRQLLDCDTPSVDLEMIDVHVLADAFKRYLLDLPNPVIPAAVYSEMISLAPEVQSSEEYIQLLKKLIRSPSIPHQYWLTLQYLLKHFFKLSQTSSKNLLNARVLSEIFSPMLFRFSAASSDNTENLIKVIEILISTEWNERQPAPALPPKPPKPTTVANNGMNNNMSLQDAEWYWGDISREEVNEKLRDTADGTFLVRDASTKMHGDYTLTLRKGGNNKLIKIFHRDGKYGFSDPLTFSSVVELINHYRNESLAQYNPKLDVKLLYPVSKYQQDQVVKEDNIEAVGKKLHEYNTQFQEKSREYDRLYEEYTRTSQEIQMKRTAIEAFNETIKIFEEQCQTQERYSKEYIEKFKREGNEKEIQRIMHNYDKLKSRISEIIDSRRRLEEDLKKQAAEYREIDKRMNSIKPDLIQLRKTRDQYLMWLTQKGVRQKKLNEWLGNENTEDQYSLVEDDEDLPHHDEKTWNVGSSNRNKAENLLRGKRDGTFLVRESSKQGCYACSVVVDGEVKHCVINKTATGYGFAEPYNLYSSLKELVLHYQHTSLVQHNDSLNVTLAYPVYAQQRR
Description: as §1, §2, §3, §4

SMILES | PI3K-γ IH% (PI3K-γ (p110γ)) | PI3K-β IH% (PI3K-β (p110β/p85α)) | IC50 (PI3K-β (p110β/p85α))
C[C@H](Nc1ncnc(N)c1C#N)c1cc2ncc(Cl)n2nc1-c1ccc(Cl)c(F)c1 [Compound 64] |  | 44.1% | 
CCC(Nc1ncnc(N)c1C#N)c1cc2ncc(Cl)n2nc1-c1cccc(F)c1 (centres unmarked) [Compound 24] | 44.5% | 46.6% | 
C[C@H](Nc1ncnc(N)c1C#N)c1cc2ncc(Cl)n2nc1-c1ccc2cccnc2c1 [Compound 61] | 26.5% | 24.4% | 
Cc1cn2nc(-c3ccccc3)c([C@H](C)Nc3ncnc(N)c3C#N)cc2n1 [Compound 58] | 20.2% | 20.5% | 
CCC(Nc1ncnc(N)c1C#N)c1cc2ncc(Cl)n2nc1-c1ccccn1 (centres unmarked) [Compound 29] | 35% |  | 
C[C@H](Nc1ncnc(N)c1C#N)c1cc2ncc(Cl)n2nc1-c1cc(F)ccc1F [Compound 35] | 64.6% | 67.6% | 
C[C@H](Nc1ncnc(N)c1C#N)c1cc2ncc(Cl)n2nc1-c1cccc(F)c1 [Compound 15] |  | 59% | 
CC(Nc1ncnc(N)c1C#N)c1cc2nccn2nc1-c1ccccc1 (centres unmarked) [Compound 1, 4-amino-6-((1-(6-phenylimidazo[1,2-b]pyridazin-7-yl)ethyl)amino)pyrimidine-5-carbonitrile] | 16.1% | 28.1% | 
C[C@H](Nc1ncnc(N)c1C#N)c1cc2ncc(Cl)n2nc1-c1ccc2scnc2c1 [Compound 74] | 40.8% | 49.4% | 
C[C@H](Nc1ncnc(N)c1C#N)c1cc2ncc(Cl)n2nc1-c1ccc2ccccc2c1 [Compound 71] | 32.6% | 35.2% | 
CC[C@@H](Nc1ncnc(N)c1C#N)c1cc2ncc(Cl)n2nc1-c1cccc(F)c1 [Compound 43, (R)-4-amino-6-((1-(3-chloro-6-(3-fluorophenyl)imidazo[1,2-b]pyridazin-7-yl)propyl)amino)pyrimidine-5-carbonitrile] | 27.2% | 23.6% | 
C[C@@H](Nc1ncnc(N)c1C#N)c1cc2ncc(Cl)n2nc1-c1ccccc1 [Compound 3, (R)-4-amino-6-((1-(3-chloro-6-phenylimidazo[1,2-b]pyridazin-7-yl)ethyl)amino)pyrimidine-5-carbonitrile] | 6.9% |  | 
C[C@H](Nc1ncnc(N)c1C#N)c1cc2ncc(Cl)n2nc1-c1ccc(F)c(F)c1 [Compound 63] |  | 48.1% | 
CCC(Nc1ncnc2[nH]cnc12)c1cc2ncc(Cl)n2nc1-c1ccccc1F (centres unmarked) [Compound 25] |  | 22.8% | 

Other lines, results leading:

PI3K-γ IH% (PI3K-γ (p110γ)) | PI3K-β IH% (PI3K-β (p110β/p85α)) | IC50 (PI3K-β (p110β/p85α)) | SMILES
36.7% | −15.5% |  | C[C@H](Nc1nc[n+]([O-])c(N)c1C#N)c1cc2ncc(Cl)n2nc1-c1ccccc1 [Compound 51, (S)-6-amino-4-((1-(3-chloro-6-phenylimidazo[1,2-b]pyridazin-7-yl)ethyl)amino)-5-cyanopyrimidine 1-oxide]
−6.9% | 2.2% |  | CNc1ncnc(N[C@@H](C)c2cc3ncc(Cl)n3nc2-c2ccccc2)c1C#N [Compound 33, (S)-4-((1-(3-chloro-6-phenylimidazo[1,2-b]pyridazin-7-yl)ethyl)amino)-6-(methylamino)pyrimidine-5-carbonitrile]
 | 55.2% |  | Cc1noc(-c2c(N)ncnc2N[C@@H](C)c2cc3ncc(Cl)n3nc2-c2ccccc2)n1 [Compound 82, (S)-N^4-(1-(3-chloro-6-phenylimidazo[1,2-b]pyridazin-7-yl)ethyl)-5-(3-methyl-1,2,4-oxadiazol-5-yl)pyrimidine-4,6-diamine]
 | 42% |  | CCC(Nc1ncnc2[nH]cnc12)c1cc2ncc(Cl)n2nc1-c1ccccc1 (centres unmarked) [Compound 18]
24.9% | 9.5% |  | C[C@@H](c1cc2ncc(Cl)n2nc1-c1ccccc1)n1ccc2c(N)ncnc21 [Compound 27, (S)-7-(1-(3-chloro-6-phenylimidazo[1,2-b]pyridazin-7-yl)ethyl)-7H-pyrrolo[2,3-d]pyrimidin-4-amine]
 | 55.7% |  | CC(Nc1ncnc2[nH]cnc12)c1cc2ncc(Cl)n2nc1-c1ccccc1 (single isomer, unassigned) [Compound 11]
−26.1% | −6.3% |  | C[C@H](Nc1ncnc(N)c1C(=O)O)c1cc2ncc(Cl)n2nc1-c1ccccc1 [Compound 52, (S)-4-amino-6-((1-(3-chloro-6-phenylimidazo[1,2-b]pyridazin-7-yl)ethyl)amino)pyrimidine-5-carboxylic acid]
34.3% | 30.5% |  | C[C@H](Nc1ncnc(N)c1C(N)=O)c1cc2ncc(Cl)n2nc1-c1ccccc1 [Compound 53, (S)-4-amino-6-((1-(3-chloro-6-phenylimidazo[1,2-b]pyridazin-7-yl)ethyl)amino)pyrimidine-5-carboxamide]
 | 27.5% |  | C[C@H](Nc1ncnc2[nH]cnc12)c1cc2ncc(Cl)n2nc1-c1cccc(F)c1 [Compound 16]
36.0% | 18.8% |  | CC[C@@H](Nc1ncnc2[nH]cnc12)c1cc2ncc(Cl)n2nc1-c1cccc(F)c1 [Compound 44]
61.2% | 15.8% |  | C[C@H](Nc1ncnc2[nH]ccc12)c1cc2ncc(Cl)n2nc1-c1ccccc1 [Compound 17]
30.3% | 6.3% |  | C[C@H](Nc1ncnc(N)c1-c1cnn(C)c1)c1cc2ncc(Cl)n2nc1-c1ccccc1 [Compound 57]
 |  | 133 nM | C[C@H](Nc1ncnc(N)c1C#N)c1cc2ncc(Cl)n2nc1-c1ccccc1O [Compound 69, (S)-4-amino-6-((1-(3-chloro-6-(2-hydroxyphenyl)imidazo[1,2-b]pyridazin-7-yl)ethyl)amino)pyrimidine-5-carbonitrile]
43.1% | 17.4% |  | C[C@@H](c1cc2ncc(Cl)n2nc1-c1ccccc1)n1cnc2c(N)ncnc21 [Compound 20, (S)-9-(1-(3-chloro-6-phenylimidazo[1,2-b]pyridazin-7-yl)ethyl)-9H-purin-6-amine]
54.3% | −2.2% |  | C[C@H](Nc1ncnc(N)c1-c1ccc(O)c(F)c1)c1cc2ncc(Cl)n2nc1-c1ccccc1 [Compound 38]
−1.4% |  |  | CC(Nc1ncnc2[nH]cc(C#N)c12)c1cc2ncc(Cl)n2nc1-c1ccccc1 (single isomer, unassigned) [Compound 9]
 | 23.8% |  | Cc1nc(N)c(C#N)c(N[C@@H](C)c2cc3ncc(Cl)n3nc2-c2ccccc2)n1 [Compound 32]
4.1% |  |  | CC[C@H](Nc1ncnc(N)c1C#N)c1cc2ncc(Cl)n2nc1-c1ccccc1 [Compound 6, (S)-4-amino-6-((1-(3-chloro-6-phenylimidazo[1,2-b]pyridazin-7-yl)propyl)amino)pyrimidine-5-carbonitrile]
